Assay results reported in ChEMBL document CHEMBL3991601, “The target landscape of clinical kinase drugs” (Science, 2017).
Counter-ions that a name gives are not always drawn. The source made the active and inactive calls.

What was measured:
[1] = molecular target: Rho-associated protein kinase 2 (Homo sapiens, UniProt O75116)
Glycine--tRNA ligase = molecular target: T1, Glycine--tRNA ligase (Homo sapiens, UniProt P41250)
T1 sequence (P41250 whole entry): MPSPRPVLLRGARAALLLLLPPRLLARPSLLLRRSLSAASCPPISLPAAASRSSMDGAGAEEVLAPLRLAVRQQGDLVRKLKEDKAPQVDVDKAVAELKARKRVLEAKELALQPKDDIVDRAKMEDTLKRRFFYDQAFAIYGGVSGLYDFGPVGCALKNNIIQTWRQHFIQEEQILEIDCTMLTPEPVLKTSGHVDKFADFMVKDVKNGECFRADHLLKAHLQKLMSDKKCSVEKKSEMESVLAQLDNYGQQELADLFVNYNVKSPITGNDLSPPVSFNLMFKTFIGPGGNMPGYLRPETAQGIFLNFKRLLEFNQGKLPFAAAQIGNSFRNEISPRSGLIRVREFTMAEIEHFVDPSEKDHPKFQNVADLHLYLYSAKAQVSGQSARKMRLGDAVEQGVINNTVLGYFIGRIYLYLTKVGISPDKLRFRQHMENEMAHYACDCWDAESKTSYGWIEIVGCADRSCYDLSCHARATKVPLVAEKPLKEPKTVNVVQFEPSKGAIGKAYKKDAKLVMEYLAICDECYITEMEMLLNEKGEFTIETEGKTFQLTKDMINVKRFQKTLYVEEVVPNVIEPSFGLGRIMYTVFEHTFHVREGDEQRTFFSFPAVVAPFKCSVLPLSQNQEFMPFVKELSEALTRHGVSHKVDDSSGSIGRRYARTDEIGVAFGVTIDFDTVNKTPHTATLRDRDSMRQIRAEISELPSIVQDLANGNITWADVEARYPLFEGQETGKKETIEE

[2] = molecular target: Citron Rho-interacting kinase (Homo sapiens, UniProt O14578)
[3] = molecular target: Serine/threonine-protein kinase PAK 2 (Homo sapiens, UniProt Q13177)
Ephrin type-A receptor 2 = Ephrin type-A receptor 2 (Homo sapiens, UniProt P29317)
[4] = molecular target: Adenylate kinase 2, mitochondrial (Homo sapiens, UniProt P54819)
[5] = molecular target: Myosin light chain kinase, smooth muscle (Homo sapiens, UniProt Q15746)
Pyridoxal kinase = molecular target: T2, Pyridoxal kinase (Homo sapiens, UniProt O00764)
T2 sequence (O00764 whole entry): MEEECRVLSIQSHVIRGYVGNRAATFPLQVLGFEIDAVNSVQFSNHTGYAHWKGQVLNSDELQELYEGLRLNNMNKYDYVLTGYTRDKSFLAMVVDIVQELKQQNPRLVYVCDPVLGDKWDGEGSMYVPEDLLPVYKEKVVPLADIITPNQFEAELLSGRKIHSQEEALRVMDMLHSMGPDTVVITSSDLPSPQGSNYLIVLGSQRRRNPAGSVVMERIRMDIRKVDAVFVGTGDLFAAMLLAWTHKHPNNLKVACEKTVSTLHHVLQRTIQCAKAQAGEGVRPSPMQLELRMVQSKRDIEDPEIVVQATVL

[6] = molecular target: Tyrosine-protein kinase ABL1 (Homo sapiens, UniProt P00519)
[7] = molecular target: Cyclin-dependent kinase 4 (Homo sapiens, UniProt P11802)
[8] = molecular target: Serine/threonine-protein kinase pim-1 (Homo sapiens, UniProt P11309)
[9] = molecular target: T3, Serine/threonine-protein kinase ICK (Homo sapiens, UniProt Q9UPZ9)
T3 sequence (Q9UPZ9 whole entry): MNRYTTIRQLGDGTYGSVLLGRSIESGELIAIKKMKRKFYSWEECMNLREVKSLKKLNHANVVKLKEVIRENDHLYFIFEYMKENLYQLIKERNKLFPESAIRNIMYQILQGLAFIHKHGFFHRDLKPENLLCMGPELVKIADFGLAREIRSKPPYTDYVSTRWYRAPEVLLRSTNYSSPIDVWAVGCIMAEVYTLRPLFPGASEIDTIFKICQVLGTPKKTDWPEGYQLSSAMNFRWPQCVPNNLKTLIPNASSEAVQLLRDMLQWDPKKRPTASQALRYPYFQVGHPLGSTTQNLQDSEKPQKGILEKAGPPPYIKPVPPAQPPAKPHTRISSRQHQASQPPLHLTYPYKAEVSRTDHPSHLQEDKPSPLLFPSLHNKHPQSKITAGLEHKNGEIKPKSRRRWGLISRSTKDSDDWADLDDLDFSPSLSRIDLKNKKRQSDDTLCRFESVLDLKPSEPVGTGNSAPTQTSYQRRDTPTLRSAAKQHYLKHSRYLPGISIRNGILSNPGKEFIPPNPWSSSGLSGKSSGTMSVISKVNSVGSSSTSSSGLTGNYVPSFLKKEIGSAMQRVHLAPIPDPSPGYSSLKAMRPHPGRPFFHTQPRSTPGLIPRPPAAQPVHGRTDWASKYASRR

ADP/ATP translocase 3 = molecular target: T4, ADP/ATP translocase 3 (Homo sapiens, UniProt P12236)
T4 sequence (P12236 whole entry): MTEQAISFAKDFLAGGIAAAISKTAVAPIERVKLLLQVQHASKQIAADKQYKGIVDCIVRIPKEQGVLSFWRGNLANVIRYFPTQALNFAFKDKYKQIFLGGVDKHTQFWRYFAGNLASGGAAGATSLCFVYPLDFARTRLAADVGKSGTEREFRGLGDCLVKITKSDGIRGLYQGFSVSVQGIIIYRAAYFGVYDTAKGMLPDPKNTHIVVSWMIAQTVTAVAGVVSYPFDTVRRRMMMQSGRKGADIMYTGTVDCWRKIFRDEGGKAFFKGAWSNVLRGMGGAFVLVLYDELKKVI

Measured: Kd
Note: in the data inactive means no Kd found up to 30 µM.

Tyrosine-protein kinase ABL1, sequence (P00519 whole entry): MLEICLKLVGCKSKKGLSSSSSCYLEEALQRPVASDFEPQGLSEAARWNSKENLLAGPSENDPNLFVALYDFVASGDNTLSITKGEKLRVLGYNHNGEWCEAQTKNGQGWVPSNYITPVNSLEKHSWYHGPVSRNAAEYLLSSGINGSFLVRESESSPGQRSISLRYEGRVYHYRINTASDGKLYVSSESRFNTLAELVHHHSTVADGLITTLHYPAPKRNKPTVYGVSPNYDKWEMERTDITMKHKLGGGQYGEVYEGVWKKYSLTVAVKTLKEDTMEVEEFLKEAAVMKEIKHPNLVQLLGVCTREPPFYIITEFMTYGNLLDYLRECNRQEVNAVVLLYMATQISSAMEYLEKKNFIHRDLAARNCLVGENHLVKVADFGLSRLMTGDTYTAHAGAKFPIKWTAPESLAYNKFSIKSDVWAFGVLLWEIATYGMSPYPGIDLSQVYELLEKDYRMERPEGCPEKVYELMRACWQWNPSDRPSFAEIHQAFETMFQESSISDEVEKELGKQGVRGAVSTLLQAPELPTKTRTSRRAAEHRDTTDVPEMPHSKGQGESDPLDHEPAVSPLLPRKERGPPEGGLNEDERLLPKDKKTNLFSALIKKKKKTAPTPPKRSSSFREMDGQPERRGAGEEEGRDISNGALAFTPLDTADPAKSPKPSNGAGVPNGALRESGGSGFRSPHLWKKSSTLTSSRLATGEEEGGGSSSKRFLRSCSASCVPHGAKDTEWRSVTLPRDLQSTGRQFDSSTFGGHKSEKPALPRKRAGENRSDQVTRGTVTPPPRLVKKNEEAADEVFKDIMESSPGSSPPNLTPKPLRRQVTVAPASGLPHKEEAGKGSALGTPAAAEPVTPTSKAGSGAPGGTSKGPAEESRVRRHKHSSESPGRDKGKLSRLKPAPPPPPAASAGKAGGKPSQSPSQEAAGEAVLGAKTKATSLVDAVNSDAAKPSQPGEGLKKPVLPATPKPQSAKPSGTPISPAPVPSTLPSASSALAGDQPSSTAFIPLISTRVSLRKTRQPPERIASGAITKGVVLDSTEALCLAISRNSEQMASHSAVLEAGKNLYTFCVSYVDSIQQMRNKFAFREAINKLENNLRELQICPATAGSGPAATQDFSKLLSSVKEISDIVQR
Myosin light chain kinase, smooth muscle, sequence (Q15746 whole entry): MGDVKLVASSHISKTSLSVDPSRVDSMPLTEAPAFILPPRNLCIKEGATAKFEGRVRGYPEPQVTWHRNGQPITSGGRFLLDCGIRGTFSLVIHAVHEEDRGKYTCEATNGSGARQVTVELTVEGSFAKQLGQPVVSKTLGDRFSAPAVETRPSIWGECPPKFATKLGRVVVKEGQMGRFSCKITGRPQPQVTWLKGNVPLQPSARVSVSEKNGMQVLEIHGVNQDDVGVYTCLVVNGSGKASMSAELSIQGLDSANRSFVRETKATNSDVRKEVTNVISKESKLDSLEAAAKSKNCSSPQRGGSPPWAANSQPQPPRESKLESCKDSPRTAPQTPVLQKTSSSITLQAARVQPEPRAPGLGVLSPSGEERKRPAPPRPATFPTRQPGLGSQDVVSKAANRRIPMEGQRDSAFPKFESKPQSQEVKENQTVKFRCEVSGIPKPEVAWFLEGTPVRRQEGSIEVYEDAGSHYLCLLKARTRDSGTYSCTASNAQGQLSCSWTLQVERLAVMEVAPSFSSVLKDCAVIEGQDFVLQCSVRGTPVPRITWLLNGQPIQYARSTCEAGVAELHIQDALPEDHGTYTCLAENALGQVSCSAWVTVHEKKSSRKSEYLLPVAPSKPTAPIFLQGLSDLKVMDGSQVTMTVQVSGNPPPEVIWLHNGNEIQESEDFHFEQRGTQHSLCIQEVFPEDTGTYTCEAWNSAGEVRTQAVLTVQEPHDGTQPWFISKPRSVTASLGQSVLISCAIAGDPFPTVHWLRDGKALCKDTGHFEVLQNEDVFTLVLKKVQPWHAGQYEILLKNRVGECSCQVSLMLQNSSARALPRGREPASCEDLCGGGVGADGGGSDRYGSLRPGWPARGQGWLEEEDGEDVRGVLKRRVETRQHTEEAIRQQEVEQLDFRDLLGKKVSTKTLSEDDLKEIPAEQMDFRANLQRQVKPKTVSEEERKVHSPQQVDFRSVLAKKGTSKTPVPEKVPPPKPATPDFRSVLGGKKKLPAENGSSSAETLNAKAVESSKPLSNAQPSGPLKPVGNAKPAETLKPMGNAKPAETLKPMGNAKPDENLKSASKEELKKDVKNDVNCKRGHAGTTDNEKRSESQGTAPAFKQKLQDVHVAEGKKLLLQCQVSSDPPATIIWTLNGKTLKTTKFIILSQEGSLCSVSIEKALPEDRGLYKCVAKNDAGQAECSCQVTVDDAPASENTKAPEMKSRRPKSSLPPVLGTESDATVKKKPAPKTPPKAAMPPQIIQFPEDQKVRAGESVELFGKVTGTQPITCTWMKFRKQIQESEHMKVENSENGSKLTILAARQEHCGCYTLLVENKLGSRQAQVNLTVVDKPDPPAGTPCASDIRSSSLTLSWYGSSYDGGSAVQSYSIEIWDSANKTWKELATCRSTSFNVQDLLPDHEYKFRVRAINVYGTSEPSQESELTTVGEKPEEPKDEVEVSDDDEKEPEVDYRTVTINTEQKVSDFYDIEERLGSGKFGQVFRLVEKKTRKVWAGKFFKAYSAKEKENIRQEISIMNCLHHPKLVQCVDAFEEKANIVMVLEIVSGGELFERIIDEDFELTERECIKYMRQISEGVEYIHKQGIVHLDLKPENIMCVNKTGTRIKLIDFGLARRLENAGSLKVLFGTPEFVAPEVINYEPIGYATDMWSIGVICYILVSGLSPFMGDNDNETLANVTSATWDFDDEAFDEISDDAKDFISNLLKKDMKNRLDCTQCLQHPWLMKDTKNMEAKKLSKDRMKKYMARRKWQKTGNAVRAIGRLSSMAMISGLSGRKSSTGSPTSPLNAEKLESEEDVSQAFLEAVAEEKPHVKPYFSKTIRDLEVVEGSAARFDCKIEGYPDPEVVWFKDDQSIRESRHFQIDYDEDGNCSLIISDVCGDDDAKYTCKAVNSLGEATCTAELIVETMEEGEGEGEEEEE
Rho-associated protein kinase 2, sequence (O75116 whole entry): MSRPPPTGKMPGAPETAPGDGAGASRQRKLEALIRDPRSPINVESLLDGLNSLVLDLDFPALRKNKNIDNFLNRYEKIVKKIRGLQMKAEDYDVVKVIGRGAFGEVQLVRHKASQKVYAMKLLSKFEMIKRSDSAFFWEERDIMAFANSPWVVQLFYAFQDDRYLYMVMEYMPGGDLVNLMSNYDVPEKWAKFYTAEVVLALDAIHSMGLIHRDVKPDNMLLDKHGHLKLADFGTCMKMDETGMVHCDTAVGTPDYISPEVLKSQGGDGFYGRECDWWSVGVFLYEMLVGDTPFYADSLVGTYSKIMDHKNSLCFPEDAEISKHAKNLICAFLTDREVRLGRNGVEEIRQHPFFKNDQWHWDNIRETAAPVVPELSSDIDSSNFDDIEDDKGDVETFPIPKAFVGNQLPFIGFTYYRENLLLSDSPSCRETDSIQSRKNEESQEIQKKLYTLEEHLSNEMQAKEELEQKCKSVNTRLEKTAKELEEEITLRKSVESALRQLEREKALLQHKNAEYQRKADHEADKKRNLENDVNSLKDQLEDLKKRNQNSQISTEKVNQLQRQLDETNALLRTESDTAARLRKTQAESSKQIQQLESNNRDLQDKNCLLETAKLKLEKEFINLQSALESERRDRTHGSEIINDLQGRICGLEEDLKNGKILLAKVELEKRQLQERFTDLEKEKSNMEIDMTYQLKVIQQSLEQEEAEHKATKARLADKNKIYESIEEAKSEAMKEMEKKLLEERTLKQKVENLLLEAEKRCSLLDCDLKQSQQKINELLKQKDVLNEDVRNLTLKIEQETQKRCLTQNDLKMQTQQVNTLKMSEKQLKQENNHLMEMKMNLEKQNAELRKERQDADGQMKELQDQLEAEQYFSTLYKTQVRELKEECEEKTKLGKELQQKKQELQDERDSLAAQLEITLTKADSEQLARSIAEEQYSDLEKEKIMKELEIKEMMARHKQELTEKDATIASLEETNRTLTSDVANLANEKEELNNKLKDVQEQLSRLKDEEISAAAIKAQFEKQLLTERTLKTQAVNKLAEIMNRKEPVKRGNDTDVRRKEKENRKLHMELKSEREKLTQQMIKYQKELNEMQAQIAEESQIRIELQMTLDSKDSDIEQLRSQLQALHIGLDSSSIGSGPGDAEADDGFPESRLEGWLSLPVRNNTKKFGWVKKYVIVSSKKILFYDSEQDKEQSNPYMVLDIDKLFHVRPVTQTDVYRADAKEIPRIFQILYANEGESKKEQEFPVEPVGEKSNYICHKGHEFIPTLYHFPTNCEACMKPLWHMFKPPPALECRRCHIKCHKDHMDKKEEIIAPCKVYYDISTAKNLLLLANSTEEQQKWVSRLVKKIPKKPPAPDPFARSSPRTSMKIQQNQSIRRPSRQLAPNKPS
Cyclin-dependent kinase 4, sequence (P11802 whole entry): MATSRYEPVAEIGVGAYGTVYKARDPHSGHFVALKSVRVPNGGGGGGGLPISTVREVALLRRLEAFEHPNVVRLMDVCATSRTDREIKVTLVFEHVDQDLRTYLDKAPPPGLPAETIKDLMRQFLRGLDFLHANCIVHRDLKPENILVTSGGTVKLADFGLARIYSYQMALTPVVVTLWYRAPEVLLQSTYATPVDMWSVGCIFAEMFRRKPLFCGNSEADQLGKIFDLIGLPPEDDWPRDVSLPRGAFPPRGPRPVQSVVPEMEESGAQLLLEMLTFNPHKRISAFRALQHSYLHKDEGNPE
Serine/threonine-protein kinase pim-1, sequence (P11309 whole entry): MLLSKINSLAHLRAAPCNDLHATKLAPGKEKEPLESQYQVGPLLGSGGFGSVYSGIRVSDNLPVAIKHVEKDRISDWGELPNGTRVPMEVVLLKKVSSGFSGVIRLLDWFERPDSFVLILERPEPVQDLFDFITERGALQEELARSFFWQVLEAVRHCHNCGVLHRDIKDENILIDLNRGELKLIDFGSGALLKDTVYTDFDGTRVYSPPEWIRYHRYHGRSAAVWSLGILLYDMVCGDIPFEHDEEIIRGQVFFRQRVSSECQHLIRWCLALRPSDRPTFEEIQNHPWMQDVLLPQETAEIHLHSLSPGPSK

COc1cc([C@@H]2c3cc4c(cc3[C@H](O)[C@H]3COC(=O)[C@@H]23)OCO4)cc(OC)c1OC [AXL-1717]
inactive: [1] > 30 µM | Glycine--tRNA ligase > 30 µM | [2] > 30 µM | [3] > 30 µM | Ephrin type-A receptor 2 > 30 µM | [4] > 30 µM | [5] > 30 µM | Pyridoxal kinase > 30 µM | [6] > 30 µM | [7] > 30 µM | [8] > 30 µM | [9] > 30 µM | ADP/ATP translocase 3 > 30 µM

Cc1cc(C(=O)NOCCO)c(Nc2ccc(I)cc2F)n(C)c1=O [AZD-8330]
inactive: [1] > 30 µM | Glycine--tRNA ligase > 30 µM | [2] > 30 µM | [3] > 30 µM | Ephrin type-A receptor 2 > 30 µM | [4] > 30 µM | [5] > 30 µM | Pyridoxal kinase > 30 µM | [6] > 30 µM | [7] > 30 µM | [8] > 30 µM | [9] > 30 µM | ADP/ATP translocase 3 > 30 µM

Cn1cnc2c(F)c(Nc3ccc(Br)cc3F)c(C(=O)NOCCO)cc21 [BINIMETINIB]
inactive: [1] > 30 µM | Glycine--tRNA ligase > 30 µM | [2] > 30 µM | [3] > 30 µM | Ephrin type-A receptor 2 > 30 µM | [4] > 30 µM | [5] > 30 µM | Pyridoxal kinase > 30 µM | [6] > 30 µM | [7] > 30 µM | [8] > 30 µM | [9] > 30 µM | ADP/ATP translocase 3 > 30 µM

CCn1c(C(=O)N(C2CC2)C2CC2)cc2c3c(ncn3C)c(Nc3cc(C)n(C)n3)nc21 [BMS-911543]
inactive: [1] > 30 µM | Glycine--tRNA ligase > 30 µM | [2] > 30 µM | [3] > 30 µM | Ephrin type-A receptor 2 > 30 µM | [4] > 30 µM | [5] > 30 µM | Pyridoxal kinase > 30 µM | [6] > 30 µM | [7] > 30 µM | [8] > 30 µM | [9] > 30 µM | ADP/ATP translocase 3 > 30 µM

Cc1cc(Nc2ncc(Cl)c(Nc3ccccc3S(=O)(=O)C(C)C)n2)c(OC(C)C)cc1C1CCNCC1 [CERITINIB]
inactive: [1] > 30 µM | Glycine--tRNA ligase > 30 µM | [2] > 30 µM | [3] > 30 µM | Ephrin type-A receptor 2 > 30 µM | [4] > 30 µM | [5] > 30 µM | Pyridoxal kinase > 30 µM | [6] > 30 µM | [7] > 30 µM | [8] > 30 µM | [9] > 30 µM | ADP/ATP translocase 3 > 30 µM

COc1c(OCCCN2CCOCC2)ccc2c1N=C(NC(=O)c1cnc(N)nc1)N1CCN=C21 [COPANLISIB]
inactive: [1] > 30 µM | Glycine--tRNA ligase > 30 µM | [2] > 30 µM | [3] > 30 µM | Ephrin type-A receptor 2 > 30 µM | [4] > 30 µM | [5] > 30 µM | Pyridoxal kinase > 30 µM | [6] > 30 µM | [7] > 30 µM | [8] > 30 µM | [9] > 30 µM | ADP/ATP translocase 3 > 30 µM

COCC(=O)NC/C=C/c1ccc2ncnc(Nc3ccc(Oc4ccc(C)nc4)c(C)c3)c2c1 [CP-724714]
inactive: [1] > 30 µM | Glycine--tRNA ligase > 30 µM | [2] > 30 µM | [3] > 30 µM | Ephrin type-A receptor 2 > 30 µM | [4] > 30 µM | [5] > 30 µM | Pyridoxal kinase > 30 µM | [6] > 30 µM | [7] > 30 µM | [8] > 30 µM | [9] > 30 µM | ADP/ATP translocase 3 > 30 µM

CCS(=O)(=O)N1CCN(c2ccc(Nc3ncc(C(N)=O)c(NC4CC4)n3)cc2)CC1 [Cerdulatinib Hydrochloride]
inactive: [1] > 30 µM | Glycine--tRNA ligase > 30 µM | [2] > 30 µM | [3] > 30 µM | Ephrin type-A receptor 2 > 30 µM | [4] > 30 µM | [5] > 30 µM | Pyridoxal kinase > 30 µM | [6] > 30 µM | [7] > 30 µM | [8] > 30 µM | [9] > 30 µM | ADP/ATP translocase 3 > 30 µM

O=C(Nc1nc2cccc(-c3ccc(CN4CCS(=O)(=O)CC4)cc3)n2n1)C1CC1 [FILGOTINIB]
inactive: [1] > 30 µM | Glycine--tRNA ligase > 30 µM | [2] > 30 µM | [3] > 30 µM | Ephrin type-A receptor 2 > 30 µM | [4] > 30 µM | [5] > 30 µM | Pyridoxal kinase > 30 µM | [6] > 30 µM | [7] > 30 µM | [8] > 30 µM | [9] > 30 µM | ADP/ATP translocase 3 > 30 µM

Cc1cccc(-c2nn3c(c2-c2ccnc4ccc(C(N)=O)cc24)CCC3)n1 [GALUNISERTIB]
inactive: [1] > 30 µM | Glycine--tRNA ligase > 30 µM | [2] > 30 µM | [3] > 30 µM | Ephrin type-A receptor 2 > 30 µM | [4] > 30 µM | [5] > 30 µM | Pyridoxal kinase > 30 µM | [6] > 30 µM | [7] > 30 µM | [8] > 30 µM | [9] > 30 µM | ADP/ATP translocase 3 > 30 µM

COc1ccc(S(=O)(=O)N(C(C)=O)c2ccccc2/C=C/c2cc[n+]([O-])cc2)cc1 [HMN-214]
inactive: [1] > 30 µM | Glycine--tRNA ligase > 30 µM | [2] > 30 µM | [3] > 30 µM | Ephrin type-A receptor 2 > 30 µM | [4] > 30 µM | [5] > 30 µM | Pyridoxal kinase > 30 µM | [6] > 30 µM | [7] > 30 µM | [8] > 30 µM | [9] > 30 µM | ADP/ATP translocase 3 > 30 µM

NC1(c2ccc(-c3nc4ccn5c(=O)[nH]nc5c4cc3-c3ccccc3)cc2)CCC1 [MK-2206]
inactive: [1] > 30 µM | Glycine--tRNA ligase > 30 µM | [2] > 30 µM | [3] > 30 µM | Ephrin type-A receptor 2 > 30 µM | [4] > 30 µM | [5] > 30 µM | Pyridoxal kinase > 30 µM | [6] > 30 µM | [7] > 30 µM | [8] > 30 µM | [9] > 30 µM | ADP/ATP translocase 3 > 30 µM
